# In US20160299147A1, “SCREENING, DIAGNOSIS, PROGNOSTICATION AND TREATMENT OF OVARIAN CANCER” (AFG TECHNOLOGIES S.À.R.L., priority 2013, published 2016):
# What was measured:
# Type in all cases: cell-based
# Ovcar-3 cells [1] = assay: XTT viability assay in Ovcar-3 cells; conditions: 25 nM paclitaxel for 24 hrs (5x the concentration used in Caov-3)
# Procedure: Caov-3 cells (ATCC® HTB-75™) were cultured in DMEM (Life Technologies; Cat. No. 31966-021) supplemented with 10% FBS (Life Technologies; Lot #41Q822OK) and GlutaMAX™ (Life Technologies; Cat. No. 35050-038). Ovcar-3 cells (ATCC® HTB-161™) were cultured in RPMI 1640 (LGC Standards; Cat. No. 30-2001) supplemented with 20% FBS (Life Technologies) and 10 μg/ml bovine insulin (Sigma Aldrich, Cat. No. 10516). Cells were cultured at 37° C. with 5% CO2 and ≧95% humidity. Cells were harvested following incubation with TrypLE™ Express (Life Technologies; Cat. No. 126005-010). Cell density and viability were determined by trypan blue exclusion using a Countess® Automated Cell Counter (Life Technologies; Mod No. C10281). […] Where indicated, Caov-3 cells were treated with 100 ng/ml IGFR blocking antibody (Millipore; Lot #30080) for 24 hrs, 100 ng/ml IGF-1 (Life Technologies; Lot #73159414A) for 48 hrs or 5 nM paclitaxel (Taxol® Sigma Aldrich; Lot #091M1781V) for 24 hrs. Ovcar-3 cells, where indicated, were treated with 100 ng/ml IGF-1 for 48 hrs or 25 nM paclitaxel for 24 hrs. […] The cell number was determined using the Countess™ automated cell counter (Life Technologies). […] After the 4 hrs incubation the absorbance of the samples was measured using a Spectramax M5e plate reader (Molecular Devices; Mod. No. M5e) at a wavelength of 450 nm.
# Caov-3 cells [2] = assay: XTT viability assay in Caov-3 cells
# Procedure: Caov-3 or Ovcar-3 cells were plated at a density of 1×10^4 cells per well into a 96-well tissue culture plate. The cell number was determined using the Countess™ automated cell counter (Life Technologies). Where indicated paclitaxel and IGF-1 were added. The final volume of the tissue culture medium was 0.1 ml. Prior to the experiment for each 96 well plate, 5 ml XTT solution and 0.1 ml activation reagent (New England Biolabs; Cat. No. 9095S) were mixed. 50 μl of the activated solution was added to each well and incubated at 37° C. for 4 hrs. The plates were shaken gently to evenly distribute the dye in the wells. After the 4 hrs incubation the absorbance of the samples was measured using a Spectramax M5e plate reader (Molecular Devices; Mod. No. M5e) at a wavelength of 450 nm.
# Caov-3 cells [3] = assay: Apoptotic DNA ladder detection in Caov-3 cells; conditions: 5 nM paclitaxel for 24 hrs
# Procedure: Caov-3 cells (ATCC® HTB-75TM) were cultured in DMEM (Life Technologies; Cat. No. 31966-021) supplemented with 10% FBS (Life Technologies; Lot #41Q822OK) and GlutaMAXTM (Life Technologies; Cat. No. 35050-038). […] Cells were cultured at 37° C. with 5% CO2 and ≧95% humidity. Cells were harvested following incubation with TrypLETM Express (Life Technologies; Cat. No. 126005-010). Cell density and viability were determined by trypan blue exclusion using a Countess® Automated Cell Counter (Life Technologies; Mod No. C10281). […] Where indicated, Caov-3 cells were treated with 100 ng/ml IGFR blocking antibody (Millipore; Lot #30080) for 24 hrs, 100 ng/ml IGF-1 (Life Technologies; Lot #73159414A) for 48 hrs or 5 nM paclitaxel (Taxol® Sigma Aldrich; Lot #091M1781V) for 24 hrs. Ovcar-3 cells, where indicated, were treated with 100 ng/ml IGF-1 for 48 hrs or 25 nM paclitaxel for 24 hrs. Caov-3 or Ovcar-3 cells were plated into [MUT]^2 culture flasks in a volume of 25 ml. The cells were seeded at 1×10^6 cells per flask as determined using the CountessTM automated cell counter (Life Technologies). Where indicated paclitaxel, IGF-1, or IGF-1+paclitaxel were added. […] DNA was resuspended in 30 μl nuclease-free water (Ambion; Cat. No. AM9937) and was quantified using a NanoVue Plus Spectrophotometer (GE Healthcare). […]
# Ovcar-3 cells [4] = assay: Invasion assay (Matrigel Boyden chamber) in Ovcar-3 cells; conditions: 100 ng/ml IGF-1, vs untreated, n=2
# Procedure: FBS (10%) mediated cell migration through an extracellular matrix was measured by Boyden chamber assay [(BD Biocoat™ Matrigel invasion chamber) BD Biosciences; Cat. No. 354480)] following the manufacturer's instructions. Briefly, Caov-3 cells were transfected with PAPPA siRNA or control siRNA (negative control) as described above. Caov-3 cells were treated with IGFR blocking antibody or untreated as described previously. Ovcar-3 cells were treated with IGF-1 or untreated as described previously. Prior to transfections or treatments the cells were serum starved for 24 hrs. Caov-3 cells were collected in DMEM medium containing 5% BSA, counted and 0.5×10^5 cells were added to each invasion assay chamber. Ovcar-3 cells were collected in RPMI medium containing 5% BSA, counted and 2×10^5 cells were added to each invasion assay chamber. After incubation for 48 hrs the invasion chamber inserts were washed with PBS, fixed in 4% formaldehyde for 5 min, stained with 0.01% crystal violet or haematoxylin and cells from random areas on the filters were counted.
# Ovcar-3 cells [5] = assay: Mitotic phase distribution analysis (H3S10ph immunostaining) in Ovcar-3 cells; conditions: 100 ng/ml IGF-1 for 48 hrs, vs untreated, p=0.055
Molecule,"response to paclitaxel treatment (morphology, XTT viability, apoptosis) (Ovcar-3 cells [1])",cell viability (XTT assay) (Caov-3 cells [2]; 5 nM paclitaxel for 24 hrs),apoptosis (DNA apoptosis kit) (Caov-3 cells [3]),"invasiveness (number of invading cells, Boyden chamber assay) (Ovcar-3 cells [4])","cell viability (XTT assay) (Caov-3 cells [2]; 100 ng/ml IGF-1 for 48 hrs, added alone)",mitotic delay (mitotic cells in prophase/prometaphase) (Ovcar-3 cells [5])
CC(=O)O[C@H]1C(=O)[C@@]2(C)[C@H]([C@H](OC(=O)c3ccccc3)[C@]3(O)C[C@H](OC(=O)[C@H](O)[C@@H](NC(=O)c4ccccc4)c4ccccc4)C(C)=C1C3(C)C)[C@]1(OC(C)=O)CO[C@@H]1C[C@@H]2O [paclitaxel],not responding,decreased,induction of apoptosis,,,
"IGF-1: insulin-like growth factor-1, recombinant, exogenously added (Life Technologies); IGF-1 receptor agonist",,,,reduced,no effect,decrease
